# US7297700B2, “Bicycloheteroaryl compounds as P2X7 modulators and uses thereof” (Renovis, Inc., priority 2005, dated 2007)
# Tested on: IL-1β release from THP-1 cells
# Test: IL-1β Release Assay (Alternate Method), THP-1 cells
# Type: cell-based, human
# Conditions: Homo sapiens, THP-1, read-out: IL-1β % inhibition
# Outline: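 THP-1 cells differentiated 16 h with 100 ng/mL LPS plus 100 ng/mL IFN-γ, reprimed 2 h with 100 ng/mL LPS, pretreated 30 min with compound, then challenged 45 min with 250 uM BzATP (final). Supernatant IL-1β quantified by ELISA; percent inhibition from background-adjusted levels versus untreated cells.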
row,SMILES,inhibition at 0.3 µM [%]
1,"O=C(CC12CC3CC(CC(C3)C1)C2)Nc1ncnc2c1CCN(CC(O)CO)C2 (stereo not shown) [Compound 23, 2-Adamantan-1-yl-N-[7-(2,3-dihydroxy-propyl)-5,6,7,8-tetrahydro-pyrido[3,4-d]pyrimidin-4-yl]-acetamide]",0 to 25
2,O=C(CC12CC3CC(CC(C3)C1)C2)Nc1ncnc2c1CCN(S(=O)(=O)c1ccccc1)C2 [Compound 143],0 to 25
3,"O=C(Nc1ncnc2c1CCN(Cc1ccccc1)C2)C12CC3CC(CC(C3)C1)C2 [Compound 334, Adamantane-1-carboxylic acid(7-benzyl-5,6,7,8-tetrahydro-pyrido[3,4-d]pyrimidin-4-yl)-amide]",50 to 75

# Same assay, conditions: Homo sapiens; at 0.3 μM; THP-1 cells; read-out: IL-1β % inhibition
row,SMILES,inhibition at 0.3 µM [%]
1,"CC12CC3CC(C)(C1)CC(CC(=O)Nc1ncnc4c1CCN(Cc1ccccc1)C4)(C3)C2 [Compound 341, N-(7-Benzyl-5,6,7,8-tetrahydro-pyrido[3,4-d]pyrimidin-4-yl)-2-(3,5-dimethyl-adamantan-1-yl)-acetamide]",25 to 50
2,O=C(c1ccccc1)N1CCc2c(ncnc2NC(=O)C23CC4CC(CC(C4)C2)C3)C1 [Compound 394],25 to 50
3,"O=C(CC12CC3CC(CC(C3)C1)C2)Nc1ncnc2c1CCNC2 [Compound 6, 2-Adamantan-1-yl-N-(5,6,7,8-tetrahydro-pyrido[3,4-d]pyrimidin-4-yl)-acetamide]",0 to 25

# Same assay, conditions: at 0.3 μM; THP-1 cells
row,SMILES,IL-1β % inhibition
1,CC(C)(C(=O)Nc1ncnc2c1CCN(C(=O)c1c(F)cccc1Cl)C2)C12CC3CC(CC(C3)C1)C2 [Compound 362],+ (compound exhibited 0-25% inhibition at 0.3 μM)
2,CCS(=O)(=O)N1CCc2c(ncnc2NC(=O)CC23CC4CC(CC(C4)C2)C3)C1 [Compound 148],+ (compound exhibited 0-25% inhibition at 0.3 μM)
3,O=C(CC12CC3CC(CC(C3)C1)C2)Nc1ncnc2c1CCN(C(=O)c1cccnc1Cl)C2 [Compound 222],+++ (compound exhibited 50-75% inhibition at 0.3 μM)
4,O=C(CC12CC3CC(CC(C3)C1)C2)Nc1ncnc2c1CCN(S(=O)(=O)Cc1ccc(Cl)cc1)C2 [Compound 189],++++ (compound exhibited 75% or greater inhibition at 0.3 μM)
5,O=C(CC12CC3CC(CC(C3)C1)C2)Nc1ncnc2c1CCN(C(=O)C1CCCN1C(=O)C(F)(F)F)C2 (stereo not shown) [Compound 306],+ (compound exhibited 0-25% inhibition at 0.3 μM)
6,Cc1c(S(=O)(=O)N2CCc3c(ncnc3NC(=O)CC34CC5CC(CC(C5)C3)C4)C2)cnn1-c1ccccc1 [Compound 160],++++ (compound exhibited 75% or greater inhibition at 0.3 μM)
7,O=C(CC12CC3CC(CC(C3)C1)C2)Nc1ncnc2c1CCN(Cc1cccc(Cl)c1)C2 [Compound 34],+ (compound exhibited 0-25% inhibition at 0.3 μM)
8,CC(C)(C(=O)Nc1ncnc2c1CCN(Cc1ccc3cc[nH]c3c1)C2)C12CC3CC(CC(C3)C1)C2 [Compound 351],+ (compound exhibited 0-25% inhibition at 0.3 μM)
9,O=C(CC12CC3CC(CC(C3)C1)C2)Nc1ncnc2c1CCN(C(=O)c1ccc3c(c1)CCO3)C2 [Compound 309],++++ (compound exhibited 75% or greater inhibition at 0.3 μM)
10,COc1ccc(C(=O)N2CCc3c(ncnc3NC(=O)CC34CC5CC(CC(C5)C3)C4)C2)cc1F [Compound 310],+++ (compound exhibited 50-75% inhibition at 0.3 μM)
11,O=C(CC12CC3CC(CC(C3)C1)C2)Nc1ncnc2c1CCN(CCCc1ccccc1)C2 [Compound 63],+ (compound exhibited 0-25% inhibition at 0.3 μM)
12,CC12CC3CC(C)(C1)CC(CC(=O)Nc1ncnc4c1CCN(Cc1ccccc1F)C4)(C3)C2 [Compound 371],+++ (compound exhibited 50-75% inhibition at 0.3 μM)
13,O=C(CC12CC3CC(CC(C3)C1)C2)Nc1ncnc2c1CCN(Cc1ccc(Cl)c(C(F)(F)F)c1)C2 [Compound 325],+ (compound exhibited 0-25% inhibition at 0.3 μM)
14,O=C(CC12CC3CC(CC(C3)C1)C2)Nc1ncnc2c1CCN(Cc1ccc3c(c1)CCO3)C2 [Compound 105],+ (compound exhibited 0-25% inhibition at 0.3 μM)
15,O=C(CC12CC3CC(CC(C3)C1)C2)Nc1ncnc2c1CCN(Cc1ccc(Cl)cc1F)C2 [Compound 328],+++ (compound exhibited 50-75% inhibition at 0.3 μM)
16,CC(C)(C(=O)Nc1ncnc2c1CCN(Cc1ccc(F)cc1)C2)C12CC3CC(CC(C3)C1)C2 [Compound 352],+ (compound exhibited 0-25% inhibition at 0.3 μM)
17,CC(C)(C(=O)Nc1ncnc2c1CCN(S(=O)(=O)Cc1ccc(Cl)c(Cl)c1)C2)C12CC3CC(CC(C3)C1)C2 [Compound 356],+ (compound exhibited 0-25% inhibition at 0.3 μM)

row,SMILES,IL-1β % inhibition
1,Cc1ccc(CN2CCc3c(ncnc3NC(=O)CC34CC5CC(CC(C5)C3)C4)C2)cc1 [Compound 44],+ (compound exhibited 0-25% inhibition at 0.3 μM)
2,Cc1ccc(C2(CNC(=O)c3ncnc4c3CCN(Cc3ccccc3)C4)CCCCC2)cc1 [Compound 60],+ (compound exhibited 0-25% inhibition at 0.3 μM)
3,CSc1ccc(CN2CCc3c(ncnc3NC(=O)CC34CC5CC(CC(C5)C3)C4)C2)cc1 [Compound 116],+ (compound exhibited 0-25% inhibition at 0.3 μM)
4,O=C(CC12CC3CC(CC(C3)C1)C2)Nc1ncnc2c1CCN(C(=O)C1CCCC1)C2 [Compound 238],++++ (compound exhibited 75% or greater inhibition at 0.3 μM)
5,CC12CC3(C)CC(C)(C1)CC(C(C)(C)C(=O)Nc1ncnc4c1CCN(Cc1ccccc1)C4)(C2)C3 [Compound 345],+ (compound exhibited 0-25% inhibition at 0.3 μM)
6,O=C(CC1CCCCC1)Nc1ncnc2c1CCN(CCCO)C2 [Compound 21],+ (compound exhibited 0-25% inhibition at 0.3 μM)
7,O=C(CC12CC3CC(CC(C3)C1)C2)Nc1ncnc2c1CCN(C(=O)c1ccncc1)C2 [Compound 304],+ (compound exhibited 0-25% inhibition at 0.3 μM)
8,O=C(CC12CC3CC(CC(C3)C1)C2)Nc1ncnc2c1CCN(S(=O)(=O)c1ccccc1F)C2 [Compound 166],++ (compound exhibited 25-50% inhibition at 0.3 μM)
9,O=C(O)C=Cc1ccc(CN2CCc3c(ncnc3NC(=O)CC34CC5CC(CC(C5)C3)C4)C2)cc1 [Compound 115],+ (compound exhibited 0-25% inhibition at 0.3 μM)
10,O=C(CC12CC3CC(CC(C3)C1)C2)Nc1ncnc2c1CCN(C(=O)COc1ccc(Cl)cc1)C2 [Compound 264],+++ (compound exhibited 50-75% inhibition at 0.3 μM)
11,COc1ccc(CC(=O)N2CCc3c(ncnc3NC(=O)CC34CC5CC(CC(C5)C3)C4)C2)cc1OC [Compound 254],+ (compound exhibited 0-25% inhibition at 0.3 μM)
12,COc1ccc(OC)c(CC(=O)N2CCc3c(ncnc3NC(=O)CC34CC5CC(CC(C5)C3)C4)C2)c1 [Compound 239],++ (compound exhibited 25-50% inhibition at 0.3 μM)
13,O=C(CC12CC3CC(CC(C3)C1)C2)Nc1ncnc2c1CCN(C(=O)c1c(Cl)cccc1Cl)C2 [Compound 218],++++ (compound exhibited 75% or greater inhibition at 0.3 μM)
14,Cn1ccnc1CN1CCc2c(ncnc2NC(=O)CC23CC4CC(CC(C4)C2)C3)C1 [Compound 67],++ (compound exhibited 25-50% inhibition at 0.3 μM)
15,O=C(CC12CC3CC(CC(C3)C1)C2)Nc1ncnc2c1CCN(C(=O)C1CC1)C2 [Compound 260],+++ (compound exhibited 50-75% inhibition at 0.3 μM)
16,O=C(CC12CC3CC(CC(C3)C1)C2)Nc1ncnc2c1CCN(Cc1ccc(OC(F)(F)F)cc1)C2 [Compound 74],+ (compound exhibited 0-25% inhibition at 0.3 μM)
17,COc1cc(CN2CCc3c(ncnc3NC(=O)CC34CC5CC(CC(C5)C3)C4)C2)ccc1O [Compound 117],+ (compound exhibited 0-25% inhibition at 0.3 μM)

# Same assay, conditions: at 0.3 μM; THP-1 cells, BzATP-stimulated
row,SMILES,IL-1β % inhibition
1,O=C(Nc1ncnc2c1CCN(S(=O)(=O)c1ccc(Cl)cc1)C2)C12CC3CC(CC(C3)C1)C2 [Compound 488],+ (compound exhibited 0-25% inhibition at 0.3 μM)
2,O=C(Nc1ncnc2c1CCN(Cc1ccncc1)C2)C12CC3CC(CC(C3)C1)C2 [Compound 610],+ (compound exhibited 0-25% inhibition at 0.3 μM)
3,COc1ccc(C(=O)N2CCc3c(ncnc3NC(=O)C34CC5CC(CC(C5)C3)C4)C2)cc1F [Compound 475],++ (compound exhibited 25-50% inhibition at 0.3 μM)
4,O=C(Nc1ncnc2c1CCN(CC1CCCCC1)C2)C12CC3CC(CC(C3)C1)C2 [Compound 556],+ (compound exhibited 0-25% inhibition at 0.3 μM)
5,O=C(c1ccccc1C(F)(F)F)N1CCc2c(ncnc2NC(=O)C23CC4CC(CC(C4)C2)C3)C1 [Compound 442],++ (compound exhibited 25-50% inhibition at 0.3 μM)
6,CCCN1CCc2c(ncnc2NC(=O)C23CC4CC(CC(C4)C2)C3)C1 [Compound 555],+ (compound exhibited 0-25% inhibition at 0.3 μM)
7,COc1ccc(CN2CCc3c(ncnc3NC(=O)C34CC5CC(CC(C5)C3)C4)C2)cc1OCc1ccccc1 [Compound 592],++++ (compound exhibited 75% or greater inhibition at 0.3 μM)
8,O=C(Nc1ncnc2c1CCN(Cc1ccc(Oc3ccccc3)cc1)C2)C12CC3CC(CC(C3)C1)C2 [Compound 576],+++ (compound exhibited 50-75% inhibition at 0.3 μM)
9,COc1ccc(S(=O)(=O)N2CCc3c(ncnc3NC(=O)C34CC5CC(CC(C5)C3)C4)C2)cc1OC [Compound 489],+++ (compound exhibited 50-75% inhibition at 0.3 μM)
10,COc1ccc(Oc2ccc(S(=O)(=O)N3CCc4c(ncnc4NC(=O)C45CC6CC(CC(C6)C4)C5)C3)cc2)cc1 [Compound 509],+++ (compound exhibited 50-75% inhibition at 0.3 μM)
11,Cc1ccccc1C(=O)N1CCc2c(ncnc2NC(=O)C23CC4CC(CC(C4)C2)C3)C1 [Compound 450],+ (compound exhibited 0-25% inhibition at 0.3 μM)
12,Cc1noc(C)c1S(=O)(=O)N1CCc2c(ncnc2NC(=O)C23CC4CC(CC(C4)C2)C3)C1 [Compound 503],+ (compound exhibited 0-25% inhibition at 0.3 μM)
